{"source": "patent US20260248767A1", "about": "“METHODS FOR INDUCING FERROPTOSIS IN CANCER” (Board of Regents, The University of Texas System, priority 2023, published 2026)", "key": {"SHMT2 protein": {"molecular_target": "T1, SHMT2 protein (Homo sapiens, UniProt P34897)", "T1 construct": "endogenous in cells", "T1 sequence (P34897 30-504)": "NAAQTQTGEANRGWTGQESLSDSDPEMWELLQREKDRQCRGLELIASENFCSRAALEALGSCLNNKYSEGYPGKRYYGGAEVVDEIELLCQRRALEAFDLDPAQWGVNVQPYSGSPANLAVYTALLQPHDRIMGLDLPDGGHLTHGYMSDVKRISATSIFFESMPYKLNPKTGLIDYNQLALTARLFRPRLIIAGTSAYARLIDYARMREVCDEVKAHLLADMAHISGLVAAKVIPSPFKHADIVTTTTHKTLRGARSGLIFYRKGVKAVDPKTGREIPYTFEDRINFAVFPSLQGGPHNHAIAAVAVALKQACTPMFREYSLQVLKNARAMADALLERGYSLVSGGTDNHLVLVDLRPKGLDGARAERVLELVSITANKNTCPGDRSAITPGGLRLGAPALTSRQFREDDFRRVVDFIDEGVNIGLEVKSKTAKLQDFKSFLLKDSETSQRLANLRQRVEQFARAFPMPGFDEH", "test": "SHMT2 tetramer formation (immunoblot)", "assay_type": "cell-based", "details": "sulfite treatment", "excerpt": "Exogenously expressed SHMT2 was also able to form tetramer (FIG. 8B).\nTo generate cell lines with stable overexpression of C-terminal-tagged SHMT2, the SHMT2 cDNA was cloned into the lentivirus expression vector pLEX_307 SFB. HEK293T cells were transfected with either pLEX_307 SFB-empty vector, or -SHMT2, together with the lentiviral packaging plasmids psPAX2 and pMD2.G using Lipofectamine 2000 reagent (Life Technologies, #11668030) according to the manufacturer's instructions and as described previously (Lei, G. et al. Oncogene 40, 3533-3547, doi: 10.1038/s41388-021-01790-w (2021); Lei, G. et al. Cell Res 30, 146-162, doi: 10.1038/s41422-019-0263-3 (2020)). Forty-eight hours later, lentivirus was collected and filtered, and the target cell lines were infected with lentivirus. Twenty-four hours after infection, antibiotic was added to the medium to obtain stable cell lines. Protein expression levels were determined by immunoblotting. To generate knockdown cell lines, lentiviral transduction with IDH1/ME1/MTHFD21 shRNA vectors was conducted as described previously (Lin, A. et al. Cancer Res 74, 1682-1693, doi: 10.1158/0008-5472.CAN-13-1729 (2014)). Forty-eight hours later, upon puromycin antibiotic selection, protein expression levels were determined by immunoblotting.\nBriefly, cells were lysed in NP-40 lysis buffer (50 mM Tris [pH 7.4], 250 mM NaCl, 5 mM EDTA, 50 mM NaF, 1 mM Na3VO4, 1% Nonidet P40) containing complete mini protease inhibitors (Roche). The protein concentration of lysates was quantified using BCA Protein Assay Kit from Life Technologies (#23227). 20 μg of total protein was loaded into SDS-PAGE gel and transferred to a PVDF membrane (Bio-Rad) using standard techniques. […]"}, "MTHFD2": {"tested_on": "MTHFD2", "test": "Protein level after sulfite treatment (Western blotting), MTHFD2", "assay_type": "cell-based", "details": "following treatment with sulfite", "protocol": "To test if sulfite changed mitochondrial protein levels, SHMT2 and MTHFD2 protein levels were measured following treatment with sulfite. No changes in protein levels were observed (FIG. 9).\nBriefly, cells were lysed in NP-40 lysis buffer (50 mM Tris [pH 7.4], 250 mM NaCl, 5 mM EDTA, 50 mM NaF, 1 mM Na3VO4, 1% Nonidet P40) containing complete mini protease inhibitors (Roche). The protein concentration of lysates was quantified using BCA Protein Assay Kit from Life Technologies (#23227). 20 μg of total protein was loaded into SDS-PAGE gel and transferred to a PVDF membrane (Bio-Rad) using standard techniques. The primary antibodies and concentrations used for Western blotting were Vinculin (1:1000, Sigma-Aldrich, #V4505), SUOX (1:1000, Abcam, #ab129094), SHMT2 (1:1000, Sigma-Aldrich, #HPA-020549), IDH1 (1:1000, Proteintech, #12332-1-AP), ME1 (1:1000,), MTHFD2 (1:1000, Abcam, #ab56772), Flag (1:1000, Sigma, #F1804), GPX4 (1:1,000, R&D, #MAB5457), COQ2 (1:1,000, Santa Cruz, sc-517107) and FSP1 (1:1000, Proteintech, #20886-1-AP)."}, "HT-1080 cells": {"tested_on": "HT-1080 cells", "test": "Lipid peroxidation measurement (C11-BODIPY 581/591, flow cytometry)", "assay_type": "cell-based, human", "details": "combined with RSL3, compared to RSL3 alone", "protocol": "Cells were seeded on 12-well plates and incubated overnight. After treating with compounds for indicated time, cells were incubated in media containing 5 μM C11-BODIPY 581/591 (Invitrogen) for 30 min at 37° C. Then cells were trypsinized and collected. […] All experiments were performed in triplicates."}}, "note": "Entries after “also recorded” stand apart in the source; their conditions may differ.", "data": [{"smiles": "O=S([O-])[O-].[Na+].[Na+]", "note": "[sulfite, sodium sulfite]", "values": [{"measurement": "tetramer formation of endogenous SHMT2 protein", "setting": "SHMT2 protein", "result": "disrupt the tetramer formation; also recorded: inhibits the tetramer formation"}, {"measurement": "tetramer formation of exogenous expressed SHMT2", "setting": "SHMT2 protein", "result": "inhibit the tetramer formation"}, {"measurement": "tetramer formation of exogenous expressed SHMT2", "setting": "SHMT2 protein; listed as Sulfite", "result": "inhibited the tetramer formation"}, {"measurement": "MTHFD2 protein level", "setting": "MTHFD2", "result": "No changes"}, {"measurement": "relative lipid peroxidation level in combination with RSL3", "setting": "HT-1080 cells", "result": "significantly increased"}]}]}
